Assay results as given in PubChem BioAssay (NCI).
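The compound was tested at five concentrations on cells cultured in 96-well plates, with a 48-hour exposure period. At the GI50, growth is halved. TGI denotes the concentration required for complete inhibition of growth.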

Tests used:
Assay in all cases: inhibition of tumour cell growth, NCI panel, 48 h
SF-539 CNS = test system: SF-539 CNS
NCI-H460 lung = test system: NCI-H460 lung
BT-549 breast = test system: BT-549 breast
SK-MEL-2 melanoma = test system: SK-MEL-2 melanoma
HOP-92 NSCLC = test system: HOP-92 NSCLC
K-562 leukemia = test system: K-562 leukemia
PC-3 prostate = test system: PC-3 prostate
HCC-2998 colon = test system: HCC-2998 colon
SF-268 CNS = test system: SF-268 CNS
MDA-MB-231 breast = test system: MDA-MB-231 breast
OVCAR-8 ovarian = test system: OVCAR-8 ovarian
HCT-15 colon = test system: HCT-15 colon
SF-295 CNS = test system: SF-295 CNS
OVCAR-5 ovarian = test system: OVCAR-5 ovarian
MOLT-4 leukemia = test system: MOLT-4 leukemia
KM12 colon = test system: KM12 colon
NCI-H226 lung = test system: NCI-H226 lung
T-47D breast = test system: T-47D breast
HOP-62 NSCLC = test system: HOP-62 NSCLC
UACC-257 melanoma = test system: UACC-257 melanoma
A498 renal = test system: A498 renal
RXF 393 renal = test system: RXF 393 renal
COLO 205 colon = test system: COLO 205 colon
HL-60(TB) leukemia = test system: HL-60(TB) leukemia
CCRF-CEM leukemia = test system: CCRF-CEM leukemia
NCI/ADR-RES ovarian = test system: NCI/ADR-RES ovarian
A549 NSCLC = test system: A549 NSCLC
MCF7 breast = test system: MCF7 breast
SR leukemia = test system: SR leukemia
M14 melanoma = test system: M14 melanoma
UACC-62 melanoma = test system: UACC-62 melanoma
786-0 renal = test system: 786-0 renal
OVCAR-3 ovarian = test system: OVCAR-3 ovarian
TK-10 renal = test system: TK-10 renal
RPMI-8226 leukemia = test system: RPMI-8226 leukemia
MALME-3M melanoma = test system: MALME-3M melanoma
NCI-H23 lung = test system: NCI-H23 lung
U251 CNS = test system: U251 CNS
DU-145 prostate = test system: DU-145 prostate
SW-620 colon = test system: SW-620 colon
HT29 colon = test system: HT29 colon
OVCAR-4 ovarian = test system: OVCAR-4 ovarian
ACHN renal = test system: ACHN renal
UO-31 renal = test system: UO-31 renal
HS 578T breast = test system: HS 578T breast
SNB-75 CNS = test system: SNB-75 CNS
SN12C renal = test system: SN12C renal
SK-MEL-5 melanoma = test system: SK-MEL-5 melanoma
MDA-MB-435 = test system: MDA-MB-435
NCI-H522 lung = test system: NCI-H522 lung
LOX IMVI melanoma = test system: LOX IMVI melanoma
CAKI-1 renal = test system: CAKI-1 renal
SNB-19 CNS = test system: SNB-19 CNS
SK-MEL-28 melanoma = test system: SK-MEL-28 melanoma
SK-OV-3 ovarian = test system: SK-OV-3 ovarian
HCT-116 colon = test system: HCT-116 colon
EKVX NSCLC = test system: EKVX NSCLC
MDA-N = test system: MDA-N
IGROV1 ovarian = test system: IGROV1 ovarian

CC[C@@]1(O)C(=O)NCc2c1cc1n(c2=O)Cc2cc3c(N)cccc3nc2-1
GI50 (SF-539 CNS): 1040 nM | TGI (SF-539 CNS): 10.9 µM | GI50 (NCI-H460 lung): 305 nM | TGI (NCI-H460 lung): 27.8 µM | GI50 (BT-549 breast): 17.8 µM | TGI (BT-549 breast): > 100 µM | GI50 (SK-MEL-2 melanoma): 9.29 µM | TGI (SK-MEL-2 melanoma): > 17.7 µM | GI50 (HOP-92 NSCLC): 8.64 µM | TGI (HOP-92 NSCLC): > 84.1 µM | GI50 (K-562 leukemia): 3.09 µM | GI50 (PC-3 prostate): 9.99 µM | TGI (PC-3 prostate): > 55.4 µM | GI50 (HCC-2998 colon): 2040 nM | TGI (HCC-2998 colon): 9.24 µM | GI50 (SF-268 CNS): 558 nM | GI50 (MDA-MB-231 breast): 16.4 µM | TGI (MDA-MB-231 breast): > 60.3 µM | GI50 (OVCAR-8 ovarian): 2390 nM | TGI (OVCAR-8 ovarian): > 78.7 µM | GI50 (HCT-15 colon): 11.5 µM | TGI (HCT-15 colon): > 100 µM | GI50 (SF-295 CNS): 1010 nM | TGI (SF-295 CNS): > 46.8 µM | GI50 (OVCAR-5 ovarian): 11.8 µM | TGI (OVCAR-5 ovarian): > 94.5 µM | GI50 (MOLT-4 leukemia): 301 nM | TGI (MOLT-4 leukemia): 16.6 µM | GI50 (KM12 colon): 10.6 µM | TGI (KM12 colon): > 36.9 µM | GI50 (NCI-H226 lung): 2030 nM | TGI (NCI-H226 lung): > 38.9 µM | GI50 (T-47D breast): 623 nM | TGI (T-47D breast): > 19.9 µM | GI50 (HOP-62 NSCLC): 973 nM | GI50 (UACC-257 melanoma): 6.15 µM | TGI (UACC-257 melanoma): > 79.5 µM | GI50 (A498 renal): 5.09 µM | TGI (A498 renal): 38.6 µM | GI50 (RXF 393 renal): 5.35 µM | TGI (RXF 393 renal): 24.9 µM | GI50 (COLO 205 colon): 8.35 µM | TGI (COLO 205 colon): > 48.1 µM | GI50 (HL-60(TB) leukemia): 1190 nM | TGI (HL-60(TB) leukemia): > 34.6 µM | GI50 (CCRF-CEM leukemia): 185 nM | TGI (CCRF-CEM leukemia): > 19.5 µM | GI50 (NCI/ADR-RES ovarian): 2290 nM | TGI (NCI/ADR-RES ovarian): 38.5 µM | GI50 (A549 NSCLC): 2500 nM | TGI (A549 NSCLC): > 69 µM | GI50 (MCF7 breast): 787 nM | TGI (MCF7 breast): > 100 µM | GI50 (SR leukemia): 672 nM | TGI (SR leukemia): 5.35 µM | GI50 (M14 melanoma): 685 nM | TGI (M14 melanoma): > 65.8 µM | GI50 (UACC-62 melanoma): 1150 nM | TGI (UACC-62 melanoma): 20.2 µM | GI50 (786-0 renal): 1370 nM | TGI (786-0 renal): 11.7 µM | GI50 (OVCAR-3 ovarian): 11 µM | TGI (OVCAR-3 ovarian): 40 µM | GI50 (TK-10 renal): 20.1 µM | TGI (TK-10 renal): > 52.8 µM | GI50 (RPMI-8226 leukemia): 4.23 µM | TGI (RPMI-8226 leukemia): > 32.1 µM | GI50 (MALME-3M melanoma): 1100 nM | GI50 (NCI-H23 lung): 942 nM | TGI (NCI-H23 lung): 15.1 µM | GI50 (U251 CNS): 2000 nM | TGI (U251 CNS): > 46.8 µM | GI50 (DU-145 prostate): 1040 nM | TGI (DU-145 prostate): 17.9 µM | GI50 (SW-620 colon): 4.16 µM | TGI (SW-620 colon): > 100 µM | GI50 (HT29 colon): 15.1 µM | TGI (HT29 colon): > 100 µM | GI50 (OVCAR-4 ovarian): 11.4 µM | TGI (OVCAR-4 ovarian): > 41.5 µM | GI50 (ACHN renal): 1230 nM | TGI (ACHN renal): > 46.6 µM | GI50 (UO-31 renal): 866 nM | TGI (UO-31 renal): 7.12 µM | GI50 (HS 578T breast): > 17.4 µM | TGI (HS 578T breast): > 64.3 µM | GI50 (SNB-75 CNS): 873 nM | TGI (SNB-75 CNS): > 18.3 µM | GI50 (SN12C renal): 529 nM | TGI (SN12C renal): 35.2 µM | GI50 (SK-MEL-5 melanoma): 1230 nM | TGI (SK-MEL-5 melanoma): 17.3 µM | GI50 (MDA-MB-435): 4.8 µM | TGI (MDA-MB-435): 18.5 µM | GI50 (NCI-H522 lung): 176 nM | TGI (NCI-H522 lung): 9.71 µM | GI50 (LOX IMVI melanoma): 468 nM | TGI (LOX IMVI melanoma): 9.5 µM | GI50 (CAKI-1 renal): 981 nM | TGI (CAKI-1 renal): 5.51 µM | GI50 (SNB-19 CNS): 2930 nM | TGI (SNB-19 CNS): > 50.7 µM | GI50 (SK-MEL-28 melanoma): 8.8 µM | TGI (SK-MEL-28 melanoma): > 77.7 µM | GI50 (SK-OV-3 ovarian): 4.54 µM | TGI (SK-OV-3 ovarian): > 86.1 µM | GI50 (HCT-116 colon): 1220 nM | TGI (HCT-116 colon): 44.2 µM | GI50 (EKVX NSCLC): 16.5 µM | TGI (EKVX NSCLC): > 51.7 µM | GI50 (MDA-N): 3.4 µM | TGI (MDA-N): 28.1 µM | GI50 (IGROV1 ovarian): 10.1 µM | TGI (IGROV1 ovarian): > 100 µM
